Data as given in patent US10413565B2, “Nanostructures for modulating intercellular communication and uses thereof” (Northwestern University, priority 2014, dated 2019).

Tests used:
Assay type in all cases: cell-based
A375 melanoma cells [1] = assay: Exosome uptake assay (DiI-labeled exosomes, flow cytometry / fluorescence microscopy); details: 24 hrs treatment
Method: A375 melanoma exosomes were isolated from conditioned media using differential ultracentrifugation [Thery et al. 2006]. In brief, cells were cultured in exosome deficient media for 72 hours at which point the cell culture media was collected and centrifuged at 2000×g to remove dead cells and debris. Next, larger vesicles and cell debris were removed by centrifugation at 10,000×g for 30 minutes. Exosomes were then pelleted by centrifugation at 100,000×g for 70 minutes, and subsequently washed in PBS by another 100,000×g centrifugation step for 70 minutes. Exosomes were re-suspended in PBS. Protein concentration of exosomes was analyzed by BCA Protein assay (Thermo Scientific). […] In order to test if HDL NPs quenched exosome fluorescence, we incubated HDL NPs with fluorescently labeled exosomes for 4 hours and then measured the fluorescent signal.
The cellular uptake of exosomes was measured by fluorescence microscopy and flow cytometry after cell treatments. […] For fluorescence microscopy experiments, cells were plated on coverslips coated with 0.1% gelatin. Exosome uptake was measured over the course of 24 hours using a BD LSR Fortessa flow cytometer (Robert H. Lurie Comprehensive Cancer Center Flow Cytometry Core) or a Nikon A1R fluorescence microscope (Northwestern University Nikon Imaging Facility).

GFP-SR-B1 = target: T1, GFP-SR-B1 (Homo sapiens, UniProt Q8WTV0); assay: GFP-SR-B1 clustering and dynamics (confocal imaging, computer vision analysis); details: A375 cells expressing GFP-SR-B1, 24 hrs treatment
T1 construct: expressed in transfected cells
T1 sequence (Q8WTV0 1-552): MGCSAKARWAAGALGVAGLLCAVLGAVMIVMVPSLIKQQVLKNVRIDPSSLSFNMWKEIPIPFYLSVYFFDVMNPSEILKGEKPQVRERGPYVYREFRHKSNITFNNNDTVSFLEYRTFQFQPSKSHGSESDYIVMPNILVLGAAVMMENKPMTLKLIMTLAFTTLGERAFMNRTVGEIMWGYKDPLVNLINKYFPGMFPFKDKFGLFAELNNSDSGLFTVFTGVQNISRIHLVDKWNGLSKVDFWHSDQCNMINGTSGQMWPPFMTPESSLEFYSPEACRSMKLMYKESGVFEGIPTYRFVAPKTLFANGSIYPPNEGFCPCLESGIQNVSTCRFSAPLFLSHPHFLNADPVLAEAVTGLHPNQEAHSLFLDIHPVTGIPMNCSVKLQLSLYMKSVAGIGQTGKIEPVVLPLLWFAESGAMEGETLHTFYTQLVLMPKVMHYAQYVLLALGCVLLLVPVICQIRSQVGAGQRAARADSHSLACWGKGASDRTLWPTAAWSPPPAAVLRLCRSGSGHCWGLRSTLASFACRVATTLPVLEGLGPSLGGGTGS
Text: A semi-automated approach using ImageJ software was employed to identify the areas of GFP-SR-B1 in the images. After background subtraction, an unsharp mask filter with a large radius was applied to locally enhance contrast. Manual thresholding of filtered images was then used to generate a segment mask, which could be overlaid on the original, background subtracted image to facilitate measurement of domain parameters such as area and mean intensity. […]
To calculate the linearity of the motion, we introduced a parameter rho (FIG. 3C), which is calculated as the ratio between the head-to-tail (first point to the end point) trajectory distance divided by the total distance traveled by fluorescent domains. […]
Fluorescence microscopy was performed using an A1R confocal microscope with assistance from the Northwestern University Center for Advanced Microscopy. Images were analyzed using NIS Elements (Nikon) and ImageJ (NIH) software. Live cell confocal fluorescence microscopy to assess lipid raft dynamics was performed with a Nikon Eclipse T1 microscope equipped with an Andor iXon Ultra 897 camera and analyzed using Metamorph software (Molecular Devices).

A375 melanoma cells [2] = assay: 3H-cholesterol efflux assay; details: BLT-1 1 μM; acceptors 500 nM
Method: A375 cells were cultured in DMEM containing 1 μCi/mL [1,2,-^3H] cholesterol (Perkin-Elmer) overnight to label the cellular cholesterol pool. Cells were then washed in PBS and resuspended in serum free media. Human HDL or HDL NPs were added to the culture media and allowed to incubate for 6 hours. Cell culture media was then collected and subjected to liquid scintillation counting. The percentage of cholesterol efflux was determined by using the formula counts media/(counts cells+counts media)×100. Efflux of cholesterol in the absence of an acceptor was also measured and interpreted along with other results.

## CCCCCCC1CCCC1=NNC(N)=S (stereo not drawn) [BLT-1, Blocks Lipid Transport 1]
A375 melanoma cells [1]
  inhibition of cellular exosome uptake: did not result in the inhibition of exosome uptake
GFP-SR-B1
  clustering of GFP-SR-B1: did not result in the inhibition of exosome uptake or clustering of the receptor
A375 melanoma cells [2]
  3H-cholesterol efflux to hHDL and HDL NP with BLT-1 treatment: reduced efflux to both hHDLs and HDL NPs
